Here are results for 27 compounds from patent publication US20230051589A1, “COMPOUNDS AND COMPOSITIONS FOR TREATING CONDITIONS ASSOCIATED WITH NLRP ACTIVITY” (Novartis AG, priority 2018, published 2023).

The subject of the first assay is IL-1β production in PMA-differentiated THP-1 cells. Nature of the assay: IL-1β production in PMA-differentiated THP-1 cells stimulated with gramicidin (hTHP-1 assay, 2% fetal bovine serum; Procedures 1-3). It is filed as cell-based, human. The note with it: Homo sapiens, THP-1, hTHP-1 assay containing 2% fetal bovine serum, Table B2, class symbols; read-out: IC50. The gist of the method: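 IL-1β released into supernatants was read by HTRF after 2 h gramicidin (5 μM) challenge. Before challenge, compounds (3-fold dilutions, top 100 μM, 0.37% DMSO) were given 1 h on THP-1 cells differentiated with PMA (20 ng/ml, 16-18 h) and held in 2% FBS medium.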
One may read the IC50 as the concentration that gives 50% inhibition. Consider `COc1cc(CN(C)C)ccc1S(N)(=O)=NC(=O)Nc1c2c(cc3c1CCC3)CCC2` (single isomer, unassigned) [Example 606, (R) or (S)-4-((dimethylamino)methyl)-N′-((1,2,3,5,6,7-hexahydro-s-indacen-4-yl)carbamoyl)-2-methoxybenzene-sulfonimidamide], for which the IC50 was 0.2 to 1 µM.
`CN(Cc1ccc(S(N)(=O)=NC(=O)Nc2c3c(cc4c2CCC4)CCC3)cc1)CC(F)F` (single isomer, unassigned) [Example 610, (R) or (S)-4-(((2,2-difluoroethyl) (methyl)amino)methyl)-N′-((1,2,3,5,6,7-hexahydro-s-indacen-4-yl)carbamoyl) benzenesulfonimidamide]: the IC50 lay within 1 to 5 µM.
Same read-out and setting: next, `CC(C)N(C)c1ccc(S(N)(=O)=NC(=O)Nc2c3c(cc4c2CCC4)CCC3)cc1` (single isomer, unassigned) [Example 615, (R) or (S)-N′-((1,2,3,5,6,7-hexahydro-s-indacen-4-yl)carbamoyl)-4-(isopropyl(methyl)amino) benzenesulfonimidamide]: 5 to 30 µM; `NS(=O)(=NC(=O)Nc1c2c(cc3c1CCC3)CCC2)c1ccc(CN2CCC(F)(F)C2)cc1` (single isomer, unassigned) [Example 620, (R) or (S)-4-((3,3-difluoropymolidin-1-yl)methyl)-N′-((1,2,3,5,6,7-hexahydro-s-indacen-4-yl)carbamoyl) benzenesulfonimidamide]: 1 to 5 µM.
Regarding `CC(O)(CO)c1ncc(S(N)(=O)=NC(=O)Nc2c3c(cc4c2CCC4)CCC3)s1` (single isomer, unassigned) [Example 626], the IC50 was in the range of 0.008 to 0.04 µM.

Still in this assay, the particulars now being: Homo sapiens, THP-1, hTHP-1 assay containing 2% fetal bovine serum, Table B2, given as bound; read-out: IC50.
In the case of `COc1cc(CN(C)C)ccc1S(N)(=O)=NC(=O)Nc1c2c(cc3c1CCC3)CCC2` (single isomer, unassigned) [Example 607, (S) or (R)-4-((dimethylamino)methyl)-N′-((1,2,3,5,6,7-hexahydro-s-indacen-4-yl)carbamoyl)-2-methoxybenzene-sulfonimidamide], the IC50 was above 30 µM.
As to `CN(Cc1ccc(S(N)(=O)=NC(=O)Nc2c3c(cc4c2CCC4)CCC3)cc1)CC(F)(F)F` (single isomer, unassigned) [Example 608, (R) or (R)-N′-((1,2,3,5,6,7-hexahydro-s-indacen-4-yl)carbamoyl)-4-((methyl(2,2,2-trifluoroethyl)amino)methyl) benzenesulfonimidamide], the 50% inhibitory concentration (IC50) was above 30 µM.
Still for that read-out and setting: next, `CN(Cc1ccc(S(N)(=O)=NC(=O)Nc2c3c(cc4c2CCC4)CCC3)cc1)CC(F)F` (single isomer, unassigned) [Example 611, (S) or (R)-4-(((2,2-difluoroethyl) (methyl)amino)methyl)-N′-((1,2,3,5,6,7-hexahydro-s-indacen-4-yl)carbamoyl) benzenesulfonimidamide]: above 30 µM; `NS(=O)(=NC(=O)Nc1c2c(cc3c1CCC3)CCC2)c1ccccc1` (single isomer, unassigned) [Example 612, (R) or (S)-N′-((1,2,3,5,6,7-hexahydro-s-indacen-4-yl)carbamoyl) benzenesulfonimidamide]: above 30 µM; `CC(C)N(C)c1ccc(S(N)(=O)=NC(=O)Nc2c3c(cc4c2CCC4)CCC3)cc1` (single isomer, unassigned) [Example 614, (S) or (R)-N′-((1,2,3,5,6,7-hexahydro-s-indacen-4-yl)carbamoyl)-4-(isopropyl(methyl)amino) benzenesulfonimidamide]: above 30 µM.
Consider `CC(C)Cc1ccc(S(N)(=O)=NC(=O)Nc2c3c(cc4c2CCC4)CCC3)cc1` (single isomer, unassigned) [Example 618, (S) or (R)-N′-((1,2,3,5,6,7-hexahydro-s-indacen-4-yl)carbamoyl)-4-isobutylbenzene-sulfonimidamide], for which the IC50 is above 30 µM.
As for `NS(=O)(=NC(=O)Nc1c2c(cc3c1CCC3)CCC2)c1ccc(CN2CCC(F)(F)C2)cc1` (single isomer, unassigned) [Example 621, (S) or (R)-4-((3,3-difluoropymolidin-1-yl)methyl)-N′-((1,2,3,5,6,7-hexahydro-s-indacen-4-yl)carbamoyl) benzenesulfonimidamide], the IC50 is above 30 µM.
For `NS(=O)(=NC(=O)Nc1c2c(cc3c1CCC3)CCC2)c1ccc(C2CCNC2)cc1F` (single isomer, unassigned) [Example 622, (R,S) or (S,S)-2-fluoro-N′-((1,2,3,5,6,7-hexahydro-s-indacen-4-yl)carbamoyl)-4-pyrrolidin-3-yl) benzenesulfonimidamide], the IC50 was above 30 µM.

The assay is the same for the next values; noted with them: hTHP-1 assay containing 2% fetal bovine serum, Table B2, class symbols; read-out: IC50.
For `CNC(C)(C)c1ccc(S(N)(=O)=NC(=O)Nc2c3c(cc4c2CCC4)CCC3)cc1` (single isomer, unassigned) [Example 603, (R) or (S)-N′-((1,2,3,5,6,7-hexahydro-s-indacen-4-yl)carbamoyl)-4-(2-(methylamino)propan-2-yl) benzenesulfonimidamide], the IC50 fell in the range of 5 to 30 µM.
`CN(C)Cc1ccc([S@](N)(=O)=NC(=O)Nc2c3c(cc4c2CCC4)CCC3)cc1F` (single isomer, unassigned) [Example 605, (R) or (S)-4-((dimethylamino)methyl)-3-fluoro-N′-((1,2,3,5,6,7-hexahydro-s-indacen-4-yl)carbamoyl) benzenesulfonimidamide]: the IC50 was 0.2 to 1 µM.
With `CN(C)Cc1ccc(S(N)(=O)=NC(=O)Nc2c3c(cc4c2CCC4)CCC3)cn1` (single isomer, unassigned) [Example 616, (S) or (R)-6-((dimethylamino)methyl)-N′-((1,2,3,5,6,7-hexahydro-s-indacen-4-yl)carbamoyl) pyridine-3-sulfonimidamide], the half-maximal inhibitory concentration (IC50) was in the range of 5 to 30 µM.
For the compound `CN(C)Cc1ccc(S(N)(=O)=NC(=O)Nc2c3c(cc4c2CCC4)CCC3)cn1` (single isomer, unassigned) [Example 617, (R) or (S)-6-((dimethylamino)methyl)-N′-((1,2,3,5,6,7-hexahydro-s-indacen-4-yl)carbamoyl) pyridine-3-sulfonimidamide], the IC50 lay within 0.2 to 1 µM.
Consider `NS(=O)(=NC(=O)Nc1c2c(cc3c1CCC3)CCC2)c1ccc(C2CCNC2)cc1F` (single isomer, unassigned) [Example 624, (R,R) or (S,R)-2-fluoro-N′-((1,2,3,5,6,7-hexahydro-s-indacen-4-yl)carbamoyl)-4-pyrrolidin-3-yl) benzenesulfonimidamide], for which the IC50 lay in the range of 0.2 to 1 µM.
Same read-out and setting: next, `NS(=O)(=NC(=O)Nc1c2c(cc3c1CCC3)CCC2)c1ccc(C2CCNC2)cc1F` (single isomer, unassigned) [Example 625, (S,R) or (R,R)-2-fluoro-N′-((1,2,3,5,6,7-hexahydro-s-indacen-4-yl)carbamoyl)-4-pyrrolidin-3-yl) benzenesulfonimidamide]: 0.2 to 1 µM.
`CC(O)(CO)c1ncc(S(N)(=O)=NC(=O)Nc2c3c(cc4c2CCC4)CCC3)s1` (single isomer, unassigned) [Example 627, (R,S) or (S,S)-1,2-dihydroxypropan-2-yl)-N′-((l,2,3,5,6,7-hexahydro-s-indacen-4-yl) carbamoyl) thiazole-5-sulfonimidamide]: the IC50 was 0.2 to 1 µM.
With `CC(O)(CO)c1ncc(S(N)(=O)=NC(=O)Nc2c3c(cc4c2CCC4)CCC3)s1` (single isomer, unassigned) [Example 628, (S,S) or (R,S)-1,2-dihydroxypropan-2-yl)-N′-((l,2,3,5,6,7-hexahydro-s-indacen-4-yl) carbamoyl) thiazole-5-sulfonimidamide], the 50% inhibitory concentration (IC50) lay within 0.2 to 1 µM.
Take `CC(O)(CO)c1cc(F)c(S(N)(=O)=NC(=O)Nc2c3c(c(C#N)c4c2CCC4)CCC3)s1` (single isomer, unassigned) [Example 629, (S,R) or (R,R)-N′-((8-cyano-1,2,3,5,6,7-hexahydro-s-indacen-4-yl)carbamoyl)-5-(1,2-dihydroxypropan-2-yl)-3-fluorothiophene-2-sulfonimidamide]: the IC50 fell in the range of 0.04 to 0.2 µM.

Still in this assay, the particulars now being: hTHP-1 assay containing 2% fetal bovine serum, Table B2, given as bound; read-out: IC50.
Take `CN(C)Cc1ccc([S@@](N)(=O)=NC(=O)Nc2c3c(cc4c2CCC4)CCC3)cc1F` (single isomer, unassigned) [Example 604, (S) or (R)-4-((dimethylamino)methyl)-3-fluoro-N′-((1,2,3,5,6,7-hexahydro-s-indacen-4-yl)carbamoyl) benzenesulfonimidamide]: the IC50 is above 30 µM.
Take `CN(Cc1ccc(S(N)(=O)=NC(=O)Nc2c3c(cc4c2CCC4)CCC3)cc1)CC(F)(F)F` (single isomer, unassigned) [Example 609, (S) or (R)-N′-((1,2,3,5,6,7-hexahydro-s-indacen-4-yl)carbamoyl)-4-((methyl(2,2,2-trifluoroethyl)amino)methyl) benzenesulfonimidamide]: the IC50 was above 30 µM.
Regarding `NS(=O)(=NC(=O)Nc1c2c(cc3c1CCC3)CCC2)c1ccccc1` (single isomer, unassigned) [Example 613, (S) or (R)-N′-((1,2,3,5,6,7-hexahydro-s-indacen-4-yl)carbamoyl) benzenesulfonimidamide], the IC50 is above 30 µM.
Take `CC(C)Cc1ccc(S(N)(=O)=NC(=O)Nc2c3c(cc4c2CCC4)CCC3)cc1` (single isomer, unassigned) [Example 619, (R) or (S)-N′-((1,2,3,5,6,7-hexahydro-s-indacen-4-yl)carbamoyl)-4-isobutylbenzene-sulfonimidamide]: the 50% inhibitory concentration (IC50) is above 30 µM.
With `NS(=O)(=NC(=O)Nc1c2c(cc3c1CCC3)CCC2)c1ccc(C2CCNC2)cc1F` (single isomer, unassigned) [Example 623, (S,S) or (R,S)-2-fluoro-N′-((1,2,3,5,6,7-hexahydro-s-indacen-4-yl)carbamoyl)-4-(- pyrrolidin-3-yl) benzenesulfonimidamide], the IC50 is above 30 µM.
